Experimental data taken from article PMC9143004, “Antioxidant Properties and Aldehyde Reactivity of PD-L1 Targeted Aryl-Pyrazolone Anticancer Agents” (Molecules, 2022).
Several values for one entry are separate records, joined by “and”; a condition that tells them apart may be missing. Equal entries are not always repeated. Where two headings read alike, the source gives them in different places.

Columns and labels:
CTLL-2 cells = assay: Reactivation of proliferation of CTLL-2 cells; type: cell-based; conditions: read-out: Proliferation (IC50): capacity to reactivate proliferation of CTLL-2 cells
recombinant human PD-L1 = recombinant human PD-L1 (Homo sapiens, UniProt Q9NZQ7); assay: PD-L1 binding by microscale thermophoresis (MST); conditions: for Kd: affinity for PD-L1 measured by MST
PD-L1/PD-1 interaction = PD-L1/PD-1 interaction (Homo sapiens, UniProt Q9NZQ7); assay: Disruption of the PD-L1/PD-1 interaction in cells, FRET assay; type: cell-based; conditions: read-out: Bioactivity (IC50): capacity to disrupt the PD-L1/PD-1 interaction in cells
[1] = DMPO spin-trapping EPR assay under Fenton conditions in methanol; conditions: DMPO 1 or 2 mM, •OCH3 radical
Procedure: In this case, we monitor the formation of an oxygen centered radical generated in the presence of the spin trapping agent DMPO under Fenton conditions (hydrogen peroxide plus ferrous ions). For practical reasons (compound solubility), experiments were carried out using methanol as a solvent and therefore, the methoxy radical is monitored. A typical six-line EPR signal is recorded, corresponding to the DMPO/^•OCH3 radical, with the characteristic hyperfine coupling constants aN = 13.9 G and aH = 8.3 G. Here again, we can measure the decay of the EPR signal in the presence of the different antioxidant compounds and compare their relative capacity to reduce the signal. Typical concentration-dependent response curves are presented in Figure 3a for compounds EDA, 2 and 4. All six compounds can induce a decrease of the EPR signal but with various degrees of efficacy (Figure 3b). Here again, the results were quantified through the measure of the area of the EPR signal as a function of the compound concentration, to allow the calculation of the reaction constants for each compound. […] Proper dose-response curves were constructed and fitted to determine the reaction rate constant (kr) for each compound, as shown in Figure 3c and the kr values are collated in Table 2.
(§1) CW-EPR experiments were performed with an X-band Bruker Elexsys E500 spectrometer (Bruker BioSpin GmbH, Rheinstetten, Germany) operating at 9.86 GHz. CW spectra were recorded at room temperature with a microwave power of 5.024–10.02 mW and a modulation amplitude of 1–2 G that assumes non-saturation conditions. The antioxidant activity was monitored using DPPH (1,1-diphenyl-2-picrylhydrazyl) at a final concentration of 100 µM as free radical scavenging molecule and DMPO (5,5-dimethyl-1-pyrroline N-oxide) as spin trap agent for the spin trapping experiments. The DMPO solution was freshly distillated prior to use at a final concentration of 1 mM or 2 mM. The solution mixture was filled into a glass capillary of 50 μL, which was in turn, placed in 4 mm quartz EPR tubes prior to analysis.
(§2) The percent inhibition of DPPH was calculated according to the following equation: I (%) = ((I0 − I)/I0) ∗ 100 where I0 is the area of the EPR spectrum of DPPH (control sample), and I is the area of the EPR spectrum of DPPH with antioxidant compound. The rate constant for the reaction of antioxidant compounds with ^•OCH3 is expressed by the following equation: 1/Ra = 1/Rf + (kr [AH]/(ka [DMPO] × Rf). Rf, and Ra indicate EPR signal area (double integration of EPR signal) of ^•OCH3, DMPO/^•OCH3, respectively. ka and [DMPO] are constants, and a plot of 1/Ra vs. [AH] (concentration of antioxidant compound) gives a straight line with 1/Rf as an intercept and kr/(ka[DMPO] Rf) as the slope. In these circumstances, the rate constant for the reaction of ^•OCH3 with antioxidant compounds (kr) can be expressed by the following equation: kr = (ka [DMPO] × slope)/interception.

[2] = DPPH free radical scavenging EPR assay; conditions: read-out: DPPH EC50 (concentration reducing the EPR signal by 50%); DPPH 100 μM; test compound 2–90 μM
Procedure: The antioxidant activity of the compounds was characterized for their free radical scavenging activities using DPPH (100 μM), chosen as a model radical. In this case, we monitor the decay in the DPPH EPR signal intensity which occurs when EPR-silent diamagnetic hydrazine counterparts are formed from DPPH. The first line DPPH signal intensity is then recorded in the presence of increasing amount of the test compound (2–90 μM). Representative dose-dependent variations of the EPR signal are shown in Figure 2a, for compounds EDA, 2 and 4. They all show the characteristic five-line EPR spectrum of DPPH, due to the hyperfine coupling with two equivalent nitrogens, and for which the intensity is proportional to the DPPH concentration, and its decay in the presence of an antioxidant. […] From these curves, the intensity of the EPR signal can be measured and its decay quantified (Figure 2b).
For each compound, the percentage of inhibition of the EPR signal was plotted as a function of the compound concentration, and the fitted curves used to determine EC50 values. The same procedure has been used to evaluate various types of antioxidant compounds [29]. […] In this test, the compounds rank in the order EDA, 2, 3 > 5 > 1 > 4.
as §1, §2

[3] = Solubility in the aqueous reaction medium; type: physicochemical; conditions: methanol:ammonium formate buffer 5 mM pH 4.5 (40:60)
Procedure: To begin with, each compound was incubated with an equimolar amount of 5fU for 180 min at 37 °C in a mixture of methanol and ammonium formate buffer 5 mM, pH 4.5 (40:60, v:v). […] In each case, the reaction mixture was introduced into the mass spectrometry equipment after a dilution in methanol to achieve a final concentration of 10 pmol/µL. The formation of drug-uracil adducts was monitored and unambiguously characterized by HRMS. […] There was no solubility issue with compound. The lack of reactivity is attributable to its adamantane unit which deactivates the adjacent reactive position or produces a steric hindrance. Otherwise, the other four compounds can react easily with 5fU to generate mono- and bis-adducts, as represented in Figure 4 with compound 2. In all cases, the observed molar mass and ring double bound value (RDB) value for the different species coincide perfectly with the expected mass (Δppm < 5 ppm) and RDB value (Table 3).

Sequence of recombinant human PD-L1 (Q9NZQ7 19-290): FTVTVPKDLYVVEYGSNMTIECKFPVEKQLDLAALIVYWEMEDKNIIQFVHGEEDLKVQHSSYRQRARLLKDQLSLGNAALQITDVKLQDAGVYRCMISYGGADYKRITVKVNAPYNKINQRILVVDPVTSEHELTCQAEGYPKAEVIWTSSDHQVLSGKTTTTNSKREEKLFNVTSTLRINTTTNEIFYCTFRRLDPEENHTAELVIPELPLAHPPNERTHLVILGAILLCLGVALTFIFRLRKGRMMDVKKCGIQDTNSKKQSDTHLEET
Sequence of PD-L1/PD-1 interaction (Q9NZQ7 19-290): as above

Kd (recombinant human PD-L1) [nM]	IC50 (PD-L1/PD-1 interaction) [nM]	EC50 [2]	Solubility in the aqueous medium [3]	Activity toward PD-L1 (recombinant human PD-L1; statement in the discussion)	Molecule	IC50 (CTLL-2 cells; CTLL-2 cells) [nM]	DMPO kr (reaction rate constant) [1]	IC50 (CTLL-2 cells; Mus musculus, CTLL-2) [nM]
77 ± 7	92 ± 9	70600 nM	–	–	CC1=NN(c2ccccn2)C(=O)C1 [Compound 1]	–	1.27 10^11 M^−1 s^−1	102 ± 8
–	–	34000 nM	–	–	COc1ccccc1C1=NN(c2ccc(Cl)cc2Cl)C(=O)C1 [Compound 3]	–	1.88 10^11 M^−1 s^−1	79 ± 7
12 ± 2	23 ± 6	59700 nM	–	–	O=C1CC(C23CC4CC(CC(C4)C2)C3)=NN1c1ccccc1Cl [Compound 5]	–	1.25 10^11 M^−1 s^−1	57 ± 9

Continued, molecule first:

Molecule	Kd (recombinant human PD-L1) [nM]	IC50 (PD-L1/PD-1 interaction) [nM]	EC50 [2]	Solubility in the aqueous medium [3]	Activity toward PD-L1 (recombinant human PD-L1; statement in the discussion)	IC50 (CTLL-2 cells; CTLL-2 cells) [nM]	DMPO kr (reaction rate constant) [1]	IC50 (CTLL-2 cells; Mus musculus, CTLL-2) [nM]
COc1nc(OCc2cccc(-c3ccccc3)c2C)ccc1CNCCNC(C)=O [BMS-202, reference compound]	–	–	–	–	–	53 ± 17	–	–
CC1=NN(c2ccc(Cl)cc2Cl)C(=O)C1 [Compound 2]	34 ± 3	23 ± 3	36500 nM	–	–	–	1.93 10^11 M^−1 s^−1	53 ± 11
O=C1CC(c2ccc(Cl)cc2)=NN1c1ccc(Cl)cc1Cl [Compound 4]	7 ± 3	3 ± 2	97000 nM and 97600 nM	limited solubility	–	–	1.04 10^11 M^−1 s^−1	124 ± 7
CC1=NN(c2ccccc2)C(=O)C1 [EDA, 1-phenyl-3-methyl-5-pyrazolone, reference compound]	–	–	35800 nM	–	totally inactive	–	2.59 10^11 M^−1 s^−1	–
Nivolumab: reference listed in Table 1; the paper does not describe it further	–	–	–	–	–	58 ± 3	–	–
